What all share (format): cell-based, human
The test system of one test is STMN2 RNA. The test is described as follows: qRT-PCR of full-length STMN2 after proteasome inhibition with MG-132 in patient's motor neurons. The conditions noted are these: MG-132 (1 uM); patient's neurons. From the text: It was established that ASO (SJ+94) and ASO (SJ-1) suppressed cryptic splicing of STMN2 and restored full length STMN2 RNA in the patient's motor neurons when there is a reduction in nuclear TDP-43. […] Post-mortem tissue studies have shown that TDP-43 mis-localization and its aggregation in cytoplasm is a hallmark of sporadic ALS. Several groups have reported cytoplasmic aggregation of TDP-43 akin to that observed in post-mortem tissue of sporadic ALS patients occurs in response to pharmacological inhibition of the proteasome (1, 4).
(Quantitative PCR measures a nucleic acid by following its amplification.)

The test system of a further test is proteasome. Nature of the test: proteasome activity assay in hMNs treated with MG-132. The following applies: overnight 1 μM treatment.
Test [1] deals with STMN2. The test is described as follows: STMN2 mRNA expression in HUES3, IG2 (Stmn2 KO) and CN7 (cryptic exon deletion) lines stressed with MG132. The conditions noted are these: 1 uM for 24 hours. How it is done:
Three cell lines, HUES3, IG2 (Stmn2 KO), and CN7 (cryptic exon deletion) were treated with normal media or media+1 uM MG132 for 24 hours to stress the cells. In HUES3 cells, the stressed condition had 52% STMN2 mRNA expression compared to the unstressed condition. In IG2 (Stmn2 KO) condition, unstressed cells had 13% expression, and when stressed, expression increased to 42%. […] It was shown that if several exons are knocked out the expression goes down, but if the TDP-43 binding site is removed, expression goes way up.

A further test deals with STMN2 cryptic exon. Nature of the test: RT-PCR detection of transcripts containing the STMN2 cryptic exon in hMNs treated with proteasome inhibitors.
The subject of test [2] is STMN2. The test is described as follows: qRT-PCR of STMN2 expression in hMNs treated with proteasome inhibitors. The following applies: short-term high dose or long-term low dose. The protocol:
(§1) To determine what happened to TDP-43 after proteasome inhibition, TDP-43 levels were examined by immunoblot analysis in both the detergent-soluble and detergent-insoluble fractions. […] Finally, STMN2 levels in neurons treated with either a short-term high dose or a long-term low dose of MG-132 were probed.
Total RNA was isolated from d10 MNs for RNA-Seq experiments and validation assays using Trizol LS (Invitrogen) according to manufacturer's instructions. 500 μL were added per well of the 24-well cultures. A total of 300-1000 ng of total RNA was used to synthesize cDNA by reverse transcription according to the iSCRIPT kit (Bio-rad). Quantitative RT-PCR (qRT-PCR) was then performed using SYBR green (Bio-Rad) and the iCycler system (Bio-rad). Quantitative levels for all genes assayed were normalized using GAPDH expression. […] All primer sequences are available upon request. For next-generation RNA sequencing (RNA-Seq), at least two technical replicas per siRNA sample or AAVS1-TDP43 genotype were included in the analyses. After RNA extraction, samples with RNA integrity numbers (RIN) above 7.5, determined by a bioAnalyzer, were used for library preparation. […] All FASTQ files were analyzed using the bcbioRNASeq workflow and toolchain (90). […]

Test [3] deals with TDP-43. The test is described as follows: TDP-43 localization by immunostaining, Pearson's correlation with DAPI, after MG-132 pulse-chase. How it is done:
For immunofluorescence, cells were fixed with ice-cold 4% PFA for 15 minutes at 4° C., permeabilized with 0.2% Triton-X in lx PBS for 45 minutes and blocked with 10% donkey serum in lx PBS-T (0.1% Tween-20) for 1 hour. Cells were then incubated overnight at 4° C. with primary antibody (diluted in blocking solution). At least 4 washes (5 min incubation each) with 1×PBS-T were carried out, before incubating the cells with secondary antibodies for 1 hour at room temperature (diluted in blocking solution). Nuclei were stained with DAPI. The following antibodies were used in this study: Hb9 (1:100, DSHB, MNR2 81.5C10-c), TUJ1 (1:1000, Sigma, T2200), MAP2 (1:10000, Abcam ab5392), Ki67 (1:400, Abcam, ab833), GFP (1:500, Life Technologies™, A10262), Islet1 (1:500, Abcam ab20670), TDP-43 (1:500, ProteinTech Group), STMN2 (1:4000, Novus), AlexaFluor™ 647-Phalloidin (1:200,). Secondary antibodies used (488, 555, 594, and 647) were AlexaFluor™ (1:1000, Life Technologies™) and DyLight (1:500, Jackson ImmunoResearch Laboratories). Micrographs were analyzed using FIJI software to determine the correlation coefficient.

Test [4] concerns TDP-43. The test is described as follows: immunoblot of TDP-43 in detergent-soluble (RIPA) and detergent-insoluble (UREA) fractions after MG-132. How it is done:
as §1
For analysis of TDP-43 and STMN2 protein expression levels, d10 MNs were lysed in RIPA buffer (150 mM Sodium Chloride; 1% Triton X-100; 0.5% sodium deoxycholate; 0.1% SDS; 50 mM Tris pH 8.0) containing protease and phosphatase inhibitors (Roche) for 20 min on ice, and centrifuged at high speed. 200 μL of RIPA buffer per well of 24-well culture were routinely used, which yielded ˜20 μg of total protein as determined by BCA (Thermo Scientific). After two washes with RIPA buffer, insoluble pellets were resuspended in 200 μl of UREA buffer (Bio-Rad). For immunoblot assays 2-3 μg of total protein were separated by SDS-PAGE (BioRad), transferred to PDVF membranes (BioRad) and probed with antibodies against TDP-43 (1:1000, ProteinTech Group), GAPDH (1:1000, Millipore) and STMN2 (1:3000, Novus). Insoluble pellets were loaded based on protein concentration of correspondent RIPA-soluble counterparts. […] GAPDH levels were used to normalized each sample, and LiCor software was used to quantitate protein band signal.

Where a SMILES comes first, the peptide text is derived from it. The star is where a group is joined. Cbz = O=C(OCc1ccccc1)*

Protocol for STMN2 cryptic exon: It was then asked if cryptic exon inclusion could be contributing to decreased STMN2 levels in hMNs after proteasome inhibition. To accomplish this goal, an RT-PCR assay was developed to detect transcripts containing the cryptic exon (FIG. 5F). […] Total RNA was isolated from neurons using RNeasy Mini Kit (Qiagen) according to manufacturer's instructions. A total of 300-1000 ng of total RNA was used to synthesize cDNA by reverse transcription according to the iSCRIPT kit (Bio-rad). RT-PCR was then performed using one cryptic exon-specific primer and then analyzed using the Agilent 2200 Tapestation.

In the case of `CC(C)C[C@@H](C=O)NC(=O)[C@H](CC(C)C)NC(=O)[C@H](CC(C)C)NC(=O)OCc1ccccc1` [MG-132] (Cbz-Leu-Leu-Leu-aldehyde), the “STMN2 expression after proteasome inhibition” value in the test with STMN2 RNA is “decreased STMN2 expression”. For the same compound, in the test on proteasome, the proteasome activity result is recorded as “less than 10 % of normal activity”. Besides, the “STMN2 mRNA expression” value with STMN2 [1] (CN7 (Cryptic Exon Deletion) cells, unstressed 729%) is 473%; with STMN2 [1] (IG2 (Stmn2 KO) cells, unstressed 13%), 42%. Moreover, the “STMN2 mRNA expression compared to the unstressed condition” value with STMN2 [1] (HUES3 cells) worked out at 52%. The “transcripts containing the STMN2 cryptic exon (PCR assay)” value in the test with STMN2 cryptic exon is “presence of transcripts containing the STMN2 cryptic exon”. Moreover, in the test on STMN2 [2], the “STMN2 mRNA levels” value was “significant decreases”. Moreover, the “TDP-43 staining in the nucleus” value in the test with TDP-43 [3] (24 hour 1 μM pulse, hMNs) is recorded as “greatly diminished”. The “TDP-43 staining following washout” value in the test with TDP-43 [3] (after 24 hour 1 μM pulse and washout) is on record as “indistinguishable to unchallenged neurons after 4 days”. For the same compound, in the test with TDP-43 [4] (control neurons treated with a low dose), the “TDP-43 levels in soluble lysates” value is listed as “significantly decreased TDP-43 levels”. The “TDP-43 in UREA (insoluble) fraction” value with TDP-43 [4] (proteasome inhibition) is on record as “triggers TDP-43 to become insoluble”.

The values above are taken from patent US20240011027A1, “METHODS AND COMPOSITIONS FOR RESTORING STMN2 LEVELS” (President and Fellows of Harvard College, priority 2020, published 2024).
